Test results reported in ChEMBL document CHEMBL2429821, “A Casein kinase 1/Checkpoint kinase 1 pyrazolo-pyridine protein kinase inhibitor as novel activator of the p53 pathway” (Bioorg Med Chem Lett, 2013).
Active and inactive are the calls of the source. No cut-off for these calls is given here.

How the values were obtained:
[1] = target: T1, Casein kinase I/MDM2 (Homo sapiens) (UniProt Q00987+P48729); assay: Inhibition of CK1-MDM2 complex in human A375 cells assessed as decrease in MDM2 protein level at 0.2 to 40 uM after 24 hrs by immunoblotting analysis; assay type: cell-based; settings: A-375
[2] = target: T1, Casein kinase I/MDM2 (Homo sapiens); assay: Inhibition of CK1-MDM2 complex in human A375 cells assessed as increase in p53 protein level at 0.2 to 40 uM after 24 hrs by immunoblotting analysis; assay type: cell-based; settings: A-375
[3] = target: T1, Casein kinase I/MDM2 (Homo sapiens); assay: Inhibition of CK1-MDM2 complex in human A375 cells assessed as increase in […] protein level at 0.2 to 40 uM after 24 hrs by immunoblotting analysis; assay type: cell-based; settings: A-375
[4] = target: T1, Casein kinase I/MDM2 (Homo sapiens); assay: Inhibition of CK1-MDM2 complex in human A375 cells assessed as effect on p21 protein level at 0.2 to 40 uM after 24 hrs by immunoblotting analysis; assay type: cell-based; settings: A-375
[5] = target: Rho-associated protein kinase 2 (Rattus norvegicus) (UniProt Q62868); assay: Inhibition of rat ROCK2 assessed as residual activity at 10 uM relative to control
[6] = target: Mitogen-activated protein kinase 14 (Homo sapiens, UniProt Q16539); assay: Inhibition of human p38alpha MAPK in presence of 50 uM ATP; settings: read-out: IC50
A-375 [7] = assay: Cell cycle arrest in human A375 cells assessed as accumulation at S phase at 80 uM after 48 hrs by FACS flow cytometric analysis (reference value: 25.1%); assay type: functional
[8] = target: Casein kinase I isoform delta (Rattus norvegicus, UniProt Q06486); assay: Inhibition of rat CK1delta in presence of 20 uM ATP
[9] = target: Casein kinase I isoform delta (Rattus norvegicus) (UniProt Q06486); assay: Inhibition of rat CK1delta assessed as residual activity at 10 uM relative to control
[10] = target: Proto-oncogene tyrosine-protein kinase Src (Homo sapiens) (UniProt P12931); assay: Inhibition of human SRC assessed as residual activity at 10 uM relative to control
A-375 [11] = assay: Cell cycle arrest in human A375 cells assessed as accumulation at G0-G1 phase at 80 uM after 48 hrs by FACS flow cytometric analysis (reference value: 55.4%); assay type: functional
A-375 [12] = assay: Cell cycle arrest in human A375 cells assessed as accumulation at G2-M phase at 10 uM after 48 hrs by FACS flow cytometric analysis (reference value: 17.3%); assay type: functional
[13] = target: Dual specificity tyrosine-phosphorylation-regulated kinase 1A (Rattus norvegicus) (UniProt Q63470); assay: Inhibition of rat DYRK1alpha assessed as residual activity at 10 uM relative to control
A-375 [14] = assay: Cell cycle arrest in human A375 cells assessed as accumulation at sub-G1 phase at 20 uM after 48 hrs by FACS flow cytometric analysis (reference value: 2.17%); assay type: functional
A-375 [15] = assay: Cell cycle arrest in human A375 cells assessed as accumulation at S phase at 10 uM after 48 hrs by FACS flow cytometric analysis (reference value: 25.1%); assay type: functional
A-375 [16] = assay: Cell cycle arrest in human A375 cells assessed as accumulation at sub-G1 phase at 80 uM after 48 hrs by FACS flow cytometric analysis (reference value: 2.17%); assay type: functional
A-375 [17] = assay: Cell cycle arrest in human A375 cells assessed as accumulation at S phase at 20 uM after 48 hrs by FACS flow cytometric analysis (reference value: 25.1%); assay type: functional
Rattus norvegicus [18] = species on record: Rattus norvegicus; assay: Inhibition of rat AMPK assessed as residual activity at 10 uM relative to control
A-375 [19] = assay: Cell cycle arrest in human A375 cells assessed as accumulation at sub-G1 phase at 40 uM after 48 hrs by FACS flow cytometric analysis (reference value: 2.17%); assay type: functional
A-375 [20] = assay: Cytotoxicity against human A375 cells assessed as reduction in cell number at 10 to 40 uM after 24 hrs by light microscopic analysis relative to control; assay type: functional, cell-based
A-375 [21] = assay: Cell cycle arrest in human A375 cells assessed as accumulation at sub-G1 phase at 10 uM after 48 hrs by FACS flow cytometric analysis (reference value: 2.17%); assay type: functional
A-375 [22] = assay: Cell cycle arrest in human A375 cells assessed as accumulation at G2-M phase at 80 uM after 48 hrs by FACS flow cytometric analysis (reference value: 17.3%); assay type: functional
A-375 [23] = assay: Cell cycle arrest in human A375 cells assessed as accumulation at G0-G1 phase at 40 uM after 48 hrs by FACS flow cytometric analysis (reference value: 55.4%); assay type: functional
A-375 [24] = assay: Cell cycle arrest in human A375 cells assessed as accumulation at G0-G1 phase at 20 uM after 48 hrs by FACS flow cytometric analysis (reference value: 55.4%); assay type: functional
[25] = target: T2, Serine/threonine-protein kinase Chk1 (Homo sapiens, UniProt O14757); assay: Inhibition of human CHK1 in presence of 20 uM ATP
T2 sequence (O14757 whole entry): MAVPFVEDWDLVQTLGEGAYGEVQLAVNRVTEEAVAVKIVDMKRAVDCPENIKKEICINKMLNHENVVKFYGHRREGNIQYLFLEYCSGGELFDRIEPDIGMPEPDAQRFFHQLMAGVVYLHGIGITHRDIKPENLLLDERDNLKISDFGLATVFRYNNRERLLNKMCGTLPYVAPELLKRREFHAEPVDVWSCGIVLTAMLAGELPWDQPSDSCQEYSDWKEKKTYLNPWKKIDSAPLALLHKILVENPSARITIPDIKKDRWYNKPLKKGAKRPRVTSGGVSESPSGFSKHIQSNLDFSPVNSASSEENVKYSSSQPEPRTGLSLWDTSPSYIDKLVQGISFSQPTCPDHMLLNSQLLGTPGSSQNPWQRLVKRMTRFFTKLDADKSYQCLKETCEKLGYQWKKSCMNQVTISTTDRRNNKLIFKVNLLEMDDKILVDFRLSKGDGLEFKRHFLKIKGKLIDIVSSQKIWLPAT

A-375 [26] = assay: Cell cycle arrest in human A375 cells assessed as accumulation at S phase at 40 uM after 48 hrs by FACS flow cytometric analysis (reference value: 25.1%); assay type: functional
A-375 [27] = assay: Cell cycle arrest in human A375 cells assessed as accumulation at G0-G1 phase at 10 uM after 48 hrs by FACS flow cytometric analysis (reference value: 55.4%); assay type: functional
[28] = target: Cyclin-dependent kinase 2 (Homo sapiens) (UniProt P24941); assay: Inhibition of human CDK2 assessed as residual activity at 10 uM relative to control
A-375 [29] = assay: Cell cycle arrest in human A375 cells assessed as accumulation at G2-M phase at 20 uM after 48 hrs by FACS flow cytometric analysis (reference value: 17.3%); assay type: functional
Oryctolagus cuniculus [30] = species on record: Oryctolagus cuniculus; assay: Inhibition of rabbit MKK1 assessed as residual activity at 10 uM relative to control
A-375 [31] = assay: Cell cycle arrest in human A375 cells assessed as accumulation at G2-M phase at 40 uM after 48 hrs by FACS flow cytometric analysis (reference value: 17.3%); assay type: functional
Rattus norvegicus [32] = species on record: Rattus norvegicus; assay: Inhibition of rat AMPK assessed as residual activity at 25 uM relative to control
[33] = target: Cyclin-dependent kinase 2 (Homo sapiens) (UniProt P24941); assay: Inhibition of human CDK2 assessed as residual activity at 25 uM relative to control
[34] = target: Dual specificity tyrosine-phosphorylation-regulated kinase 1A (Rattus norvegicus) (UniProt Q63470); assay: Inhibition of rat DYRK1alpha assessed as residual activity at 25 uM relative to control
[35] = target: Rho-associated protein kinase 2 (Rattus norvegicus) (UniProt Q62868); assay: Inhibition of rat ROCK2 assessed as residual activity at 25 uM relative to control
[36] = target: Casein kinase I isoform delta (Rattus norvegicus) (UniProt Q06486); assay: Inhibition of rat CK1delta assessed as residual activity at 25 uM relative to control
Oryctolagus cuniculus [37] = species on record: Oryctolagus cuniculus; assay: Inhibition of rabbit MKK1 assessed as residual activity at 25 uM relative to control
Bos taurus = species on record: Bos taurus; assay: Inhibition of cow PKA assessed as residual activity at 25 uM relative to control
[38] = target: Proto-oncogene tyrosine-protein kinase Src (Homo sapiens) (UniProt P12931); assay: Inhibition of human SRC assessed as residual activity at 25 uM relative to control

T1 sequence (P48729 whole entry, looked up): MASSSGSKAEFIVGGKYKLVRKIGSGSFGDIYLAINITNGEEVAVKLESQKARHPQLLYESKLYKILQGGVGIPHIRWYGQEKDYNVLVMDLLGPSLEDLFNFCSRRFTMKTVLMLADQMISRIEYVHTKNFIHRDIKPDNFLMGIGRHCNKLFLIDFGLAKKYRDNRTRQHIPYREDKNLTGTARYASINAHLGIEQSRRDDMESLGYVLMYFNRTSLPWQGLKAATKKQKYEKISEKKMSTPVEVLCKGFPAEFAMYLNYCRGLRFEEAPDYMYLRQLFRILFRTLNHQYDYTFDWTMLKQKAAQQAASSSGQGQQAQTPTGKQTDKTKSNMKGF
T1 sequence (Q00987 whole entry, looked up): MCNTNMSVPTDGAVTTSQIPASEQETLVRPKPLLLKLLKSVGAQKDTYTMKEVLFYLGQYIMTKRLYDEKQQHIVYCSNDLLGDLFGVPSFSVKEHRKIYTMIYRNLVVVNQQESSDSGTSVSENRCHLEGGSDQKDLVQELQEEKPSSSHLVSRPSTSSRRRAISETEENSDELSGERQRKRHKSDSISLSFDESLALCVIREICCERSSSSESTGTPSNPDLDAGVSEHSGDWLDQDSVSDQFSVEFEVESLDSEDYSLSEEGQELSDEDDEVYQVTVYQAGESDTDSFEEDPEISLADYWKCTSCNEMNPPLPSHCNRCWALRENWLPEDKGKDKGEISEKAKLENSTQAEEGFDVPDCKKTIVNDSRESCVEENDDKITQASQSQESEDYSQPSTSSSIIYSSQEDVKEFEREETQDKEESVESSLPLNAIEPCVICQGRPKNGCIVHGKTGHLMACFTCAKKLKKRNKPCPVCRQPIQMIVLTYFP
Sequence of Proto-oncogene tyrosine-protein kinase Src (Homo sapiens) (P12931 2-536 limits assumed): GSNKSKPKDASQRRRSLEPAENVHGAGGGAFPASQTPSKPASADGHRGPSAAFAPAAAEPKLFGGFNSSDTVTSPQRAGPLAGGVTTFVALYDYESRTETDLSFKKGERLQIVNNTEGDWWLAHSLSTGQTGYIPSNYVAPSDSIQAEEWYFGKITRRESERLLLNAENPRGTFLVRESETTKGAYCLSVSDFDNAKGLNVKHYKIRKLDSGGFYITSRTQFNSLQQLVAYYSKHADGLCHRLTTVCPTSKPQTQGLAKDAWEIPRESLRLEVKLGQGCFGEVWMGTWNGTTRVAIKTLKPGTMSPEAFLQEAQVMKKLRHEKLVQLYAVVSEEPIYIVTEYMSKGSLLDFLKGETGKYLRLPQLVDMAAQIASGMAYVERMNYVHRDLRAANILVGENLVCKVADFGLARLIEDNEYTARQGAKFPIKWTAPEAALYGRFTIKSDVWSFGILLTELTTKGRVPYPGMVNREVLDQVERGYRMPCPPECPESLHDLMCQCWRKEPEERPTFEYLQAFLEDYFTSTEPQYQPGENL
Sequence of Casein kinase I isoform delta (Rattus norvegicus) (Q06486 whole entry, looked up, canonical isoform): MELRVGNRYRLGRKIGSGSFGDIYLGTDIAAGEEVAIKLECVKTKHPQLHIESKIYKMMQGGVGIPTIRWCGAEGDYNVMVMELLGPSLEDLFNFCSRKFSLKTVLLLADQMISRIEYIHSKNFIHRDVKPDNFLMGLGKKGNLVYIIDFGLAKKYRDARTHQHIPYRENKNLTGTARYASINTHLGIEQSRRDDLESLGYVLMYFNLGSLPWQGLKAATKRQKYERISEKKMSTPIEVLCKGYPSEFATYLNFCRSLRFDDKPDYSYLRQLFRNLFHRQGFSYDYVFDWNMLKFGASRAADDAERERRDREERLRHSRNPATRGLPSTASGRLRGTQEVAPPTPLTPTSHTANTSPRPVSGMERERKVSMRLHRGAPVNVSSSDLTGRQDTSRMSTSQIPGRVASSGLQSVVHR
Sequence of Rho-associated protein kinase 2 (Rattus norvegicus) (Q62868 whole entry, looked up, canonical isoform): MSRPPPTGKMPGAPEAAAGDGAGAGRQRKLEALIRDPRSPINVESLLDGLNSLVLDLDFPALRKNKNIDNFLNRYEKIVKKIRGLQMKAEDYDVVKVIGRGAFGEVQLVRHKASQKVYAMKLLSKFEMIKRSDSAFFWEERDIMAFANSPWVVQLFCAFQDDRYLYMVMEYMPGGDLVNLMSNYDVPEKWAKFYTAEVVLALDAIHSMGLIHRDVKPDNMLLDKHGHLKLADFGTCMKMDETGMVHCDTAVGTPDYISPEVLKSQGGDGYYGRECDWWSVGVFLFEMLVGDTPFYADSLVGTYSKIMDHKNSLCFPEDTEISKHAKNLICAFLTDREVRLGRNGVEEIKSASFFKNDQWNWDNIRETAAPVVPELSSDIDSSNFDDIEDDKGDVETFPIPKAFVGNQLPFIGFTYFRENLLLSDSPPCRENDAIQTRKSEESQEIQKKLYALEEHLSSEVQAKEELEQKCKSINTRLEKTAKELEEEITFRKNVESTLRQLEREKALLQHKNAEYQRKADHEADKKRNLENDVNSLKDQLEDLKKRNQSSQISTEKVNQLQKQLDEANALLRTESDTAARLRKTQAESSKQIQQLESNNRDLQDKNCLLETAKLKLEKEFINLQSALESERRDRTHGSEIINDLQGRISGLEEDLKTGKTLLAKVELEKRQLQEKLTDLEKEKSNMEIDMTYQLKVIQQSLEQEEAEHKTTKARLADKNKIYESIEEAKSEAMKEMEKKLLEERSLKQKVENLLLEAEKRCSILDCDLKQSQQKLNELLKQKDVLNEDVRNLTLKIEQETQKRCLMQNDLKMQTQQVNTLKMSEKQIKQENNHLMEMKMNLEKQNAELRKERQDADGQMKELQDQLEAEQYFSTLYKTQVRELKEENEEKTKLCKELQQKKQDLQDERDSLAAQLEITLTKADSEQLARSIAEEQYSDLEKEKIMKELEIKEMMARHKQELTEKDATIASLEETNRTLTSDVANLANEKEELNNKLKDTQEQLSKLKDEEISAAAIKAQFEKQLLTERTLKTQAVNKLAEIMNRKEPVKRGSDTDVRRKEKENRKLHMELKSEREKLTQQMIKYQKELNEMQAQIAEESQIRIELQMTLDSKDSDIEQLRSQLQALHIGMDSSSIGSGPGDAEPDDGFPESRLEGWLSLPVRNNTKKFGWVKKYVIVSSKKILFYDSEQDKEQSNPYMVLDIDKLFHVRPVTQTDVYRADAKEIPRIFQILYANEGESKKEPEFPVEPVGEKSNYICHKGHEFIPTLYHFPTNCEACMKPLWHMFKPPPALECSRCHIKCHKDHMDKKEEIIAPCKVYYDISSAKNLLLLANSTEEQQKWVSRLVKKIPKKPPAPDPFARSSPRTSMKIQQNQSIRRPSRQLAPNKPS
Sequence of Mitogen-activated protein kinase 14 (Q16539 whole entry): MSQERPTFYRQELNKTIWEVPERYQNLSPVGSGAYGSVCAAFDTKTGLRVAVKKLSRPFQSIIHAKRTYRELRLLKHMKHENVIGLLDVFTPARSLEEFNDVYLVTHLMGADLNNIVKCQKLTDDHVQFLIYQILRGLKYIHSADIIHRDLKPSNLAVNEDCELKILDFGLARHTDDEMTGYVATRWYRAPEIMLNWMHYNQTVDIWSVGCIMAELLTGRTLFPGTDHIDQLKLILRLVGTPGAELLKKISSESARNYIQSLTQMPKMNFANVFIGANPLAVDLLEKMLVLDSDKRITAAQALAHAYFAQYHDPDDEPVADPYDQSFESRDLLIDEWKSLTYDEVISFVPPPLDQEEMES
Sequence of Casein kinase I isoform delta (Q06486 whole entry, canonical isoform): as the sequence (Q06486 whole entry, looked up, canonical isoform) above

**Q.** What does the source list for `O=C(Nc1n[nH]c2ncc(-c3cccnc3)cc12)C1CCCC1`?
**A.** inhibition [1]: Active; inhibition [2]: Active; inhibition [3]: Active; inhibition [4]: inactive

**Q.** `NC(=O)c1ccc(-c2nc(-c3ccc4c(c3)OCCO4)c(-c3ccccn3)[nH]2)cc1` was tested. Which Activity [5] did it give?
**A.** 105%

**Q.** What about the IC50 [6] of the same molecule?
**A.** 4150 nM

**Q.** And the Activity (A-375 [7])?
**A.** 9.33%

**Q.** What about the IC50 [8] of the same molecule?
**A.** 353 nM

**Q.** And the Activity [9]?
**A.** 4%

**Q.** What about the Activity [10] of the same molecule?
**A.** 82%

**Q.** And the Activity (A-375 [11])?
**A.** 52.9%

**Q.** And the Activity (A-375 [12])?
**A.** 13.7%

**Q.** And the Activity [13]?
**A.** 86%

**Q.** What about the Activity (A-375 [14]) of the same molecule?
**A.** 6.96%

**Q.** And the Activity (A-375 [15])?
**A.** 26.6%

**Q.** And the Activity (A-375 [16])?
**A.** 32.7%

**Q.** What about the Activity (A-375 [17]) of the same molecule?
**A.** 31.9%

**Q.** What about the Activity (Rattus norvegicus [18]) of the same molecule?
**A.** 98%

**Q.** And the Activity (A-375 [19])?
**A.** 22.3%

**Q.** And the Activity (A-375 [20])?
**A.** Active

**Q.** What about the Activity (A-375 [21]) of the same molecule?
**A.** 3.92%

**Q.** And the Activity (A-375 [22])?
**A.** 4.9%

**Q.** What about the Activity (A-375 [23]) of the same molecule?
**A.** 43.1%

**Q.** And the Activity (A-375 [24])?
**A.** 41.9%

**Q.** What about the IC50 [25] of the same molecule?
**A.** Not Active

**Q.** What about the Activity (A-375 [26]) of the same molecule?
**A.** 24.3%

**Q.** What about the Activity (A-375 [27]) of the same molecule?
**A.** 55.4%

**Q.** And the Activity [28]?
**A.** 113%

**Q.** And the Activity (A-375 [29])?
**A.** 18.8%

**Q.** What about the Activity (Oryctolagus cuniculus [30]) of the same molecule?
**A.** 93%

**Q.** What about the Activity (A-375 [31]) of the same molecule?
**A.** 9.66%

**Q.** Which results are given for `COc1cc(OC)c(C=C2C(=O)Nc3ccccc32)c(OC)c1`?
**A.** Activity (Rattus norvegicus [32]): 71%; Activity [33]: 83%; Activity [34]: 73%; Activity [35]: 78%; Activity [36]: 9%; Activity (Oryctolagus cuniculus [37]): 86%; Activity (Bos taurus): 82%; Activity [38]: 70%
